In patent US7119229B2 (priority 2001, dated 2006):
Where two headings read alike, the source gives them in different places.

Columns and labels:
[1] = system: SKOV-3 (human ovarian); experiment: SRB cytotoxicity assay, SK-OV-3; assay type: cell-based; settings: 72 hours, read-out: ED50 SK-OV-3
Description: (§1) Human tumor cells, including MCF-7 (human breast adenomatous tumor), MCF-7/DOX (adriamycin resistant cell strain), MRS-SA (human uterine sarcoma), MES-SA/DX5 (adriamycin resistant cell strain), A 549 (human non-small cell lung), SKOV-3 (human ovarian), SKMEL-2 (human melanoma), XF-498 (human CNS), HCT-15 (human colon) were incubated at 37° C. in the presence of 5% CO2 using a DMEM culture medium. The respective cells were seeded into each well of 96-well plates at a concentration of 2×10^3˜5×10^3 cells/well. […] Each cell line of the resultant plates was fixed with trichloroacetic acid (TCA), stained with 0.4% SRB solution and rinsed with 1% acetic acid. Thereafter, the dye was dissolved in 10 mM Tris base to measure the optical density (OD) at 520 nm.

[2] = system: BALB/c mouse spleen cell (responding) and DBA/2 mouse spleen cell (stimulating); assay type: cell-based; settings: MLR, FIG. 1
Description: MLR tests were carried out to determine the immunosuppressive effect of an immunosuppressive candidate material. When a responding cell (BALB/c mouse spleen cell) and a stimulating cell (DBA/2 mouse spleen cell) were cultured separately, the cells grew little. On the contrary, when the cells were simultaneously cultured, the cells were proliferated due to induction of an antigen-antibody reaction. The proliferated cells were treated with the immunosuppressive candidate material for measurement of the proliferation inhibitory extent.
After culturing for 72 hours at a CO2 incubator, a 20 μl MTS solution was added to each well, followed by further culturing for 2 to 4 hours and measuring OD at […] by using ELISA.

[3] = system: TA98
Description: (§2) This assay is carried out to test mutagenicity of chemical substances using histidine auxotrophic strains that are one of Salmonella Typhimurium mutants. […] When various mutagens are added to the culture medium, only revertants generated by reverse mutation survive.
(§3) Ames test was carried out using […]. […] After incubation, the number of revertant colonies was counted. 3 plates were prepared for each test and the average was calculated.

[4] = system: TA1535; settings: TA1525 (so in the source)
Description: as §2, §3

[5] = system: TA100
Description: as §2, §3

[6] = system: MCF-7/DOX (adriamycin resistant cell strain); experiment: SRB cytotoxicity assay, MCF-7/DOX; assay type: cell-based; settings: Homo sapiens, MCF7-DOX, 72 h, read-out: ED50 MCF-7/DOX
Description: as §1

[7] = system: ICR mice; experiment: Acute (intravenous administration) toxicity assay; settings: for Days for the test (death) Total: deaths/mice
[8] = system: HCT-15 (human colon); experiment: SRB cytotoxicity assay, HCT15; assay type: cell-based; settings: HCT-15, 72 h, read-out: ED50 HCT15
Description: as §1

[9] = system: SKMEL-2 (human melanoma); experiment: SRB cytotoxicity assay, SK-MEL-2; assay type: cell-based; settings: SK-MEL-2, 72 h, read-out: ED50 SK-MEL-2
Description: as §1

[10] = system: ICR mice; experiment: Oral administration toxicity assay; settings: for Days for the test (death) Total: deaths/mice
[11] = system: MCF-7 (human breast adenomatous tumor); experiment: SRB cytotoxicity assay, MCF7; assay type: cell-based; settings: MCF7, 72 h, read-out: ED50 MCF7
Description: as §1

[12] = system: BALB/c mouse spleen cells, B cells activated with lipopolysaccharide (LPS); experiment: Immunosuppressive effect test using BALB/c mouse spleen cells, LPS (B cells); assay type: cell-based; settings: 20 μg/ml lipopolysaccharide, 72 hours, MTS, FIGS. 2 and 3
Description: This test was carried out to determine the immunosuppressive effect of an immunosuppressive candidate material by checking anti-proliferation of T cells and B cells. To identify the proliferation inhibitory extent, responding cells (BALB/c mouse spleen cells) were treated with an immunosuppressive candidate material, lipopolysaccharide (LPS) as a B cell activator and concanvalin A (ConA) as a T cell activator. It is known that the responding cells treated with LPS induce proliferation of B cells and those treated with ConA induce proliferation of T cells.
Responding cells (BALB/c mouse spleen cells) were seeded into each well of 96-well plates at a concentration of 2×10^5 cells/well. […] After culturing for 72 hours at a CO2 incubator, a 20 μl MTS solution was added to each well, followed by further culturing for 2 to 4 hours and measuring OD at 490 nm using ELISA.

[13] = system: XF-498 (human CNS); experiment: SRB cytotoxicity assay, XF498; assay type: cell-based; settings: 72 hours, read-out: ED50 XF498
Description: as §1

[14] = system: TA1537; experiment: Reverse mutation assay (Ames test), TA1537
Description: as §2, §3

COc1cc2c(c(OC)c1OC)-c1ccc(OC)c(=O)cc1[C@@H](NC(=O)c1cccc(CO[N+](=O)[O-])c1)CC2 [Compound 6, 3-nitrooxymethyl-N-(1,2,3,10-tetramethoxy-9-oxo-5,6,7,9-tetrahydro-benzo[a]heptarene-7-yl)-benzamide]
EC50 [1]: 0.2 nM
immunosuppressive effect [2]: good immunosuppressive effect
Colony/Plate S-9 Mixture (+) ([3]; TA98, 317.5 μg/Plate): 32 Colony/Plate
Colony/Plate S-9 Mixture (−) ([3]; TA98, 317.5 μg/Plate): 21 Colony/Plate
Colony/Plate S-9 Mixture (+) ([3]; TA98, 625 μg/Plate): 29 Colony/Plate
Colony/Plate S-9 Mixture (−) ([3]; TA98, 625 μg/Plate): 32 Colony/Plate
Colony/Plate S-9 Mixture (+) ([3]; TA98, 1250 μg/Plate): 33 Colony/Plate
Colony/Plate S-9 Mixture (−) ([3]; TA98, 1250 μg/Plate): 24 Colony/Plate
Colony/Plate S-9 Mixture (+) ([3]; TA98, 2500 μg/Plate): 22 Colony/Plate
Colony/Plate S-9 Mixture (−) ([3]; TA98, 2500 μg/Plate): 22 Colony/Plate
Colony/Plate S-9 Mixture (+) ([3]; TA98, 5000 μg/Plate): 23 Colony/Plate
Colony/Plate S-9 Mixture (−) ([3]; TA98, 5000 μg/Plate): 19 Colony/Plate
Colony/Plate S-9 Mixture (+) ([4]; 317.5 μg/Plate): 14 Colony/Plate
Colony/Plate S-9 Mixture (−) ([4]; 317.5 μg/Plate): 14 Colony/Plate
Colony/Plate S-9 Mixture (+) ([4]; 625 μg/Plate): 12 Colony/Plate
Colony/Plate S-9 Mixture (−) ([4]; 625 μg/Plate): 18 Colony/Plate
Colony/Plate S-9 Mixture (+) ([4]; 1250 μg/Plate): 11 Colony/Plate
Colony/Plate S-9 Mixture (−) ([4]; 1250 μg/Plate): 15 Colony/Plate
Colony/Plate S-9 Mixture (+) ([4]; 2500 μg/Plate): 11 Colony/Plate
Colony/Plate S-9 Mixture (−) ([4]; 2500 μg/Plate): 10 Colony/Plate
Colony/Plate S-9 Mixture (+) ([4]; 5000 μg/Plate): 9 Colony/Plate
Colony/Plate S-9 Mixture (−) ([4]; 5000 μg/Plate): 13 Colony/Plate
Colony/Plate S-9 Mixture (+) ([5]; TA100, 317.5 μg/Plate): 96 Colony/Plate
Colony/Plate S-9 Mixture (−) ([5]; TA100, 317.5 μg/Plate): 81 Colony/Plate
Colony/Plate S-9 Mixture (+) ([5]; TA100, 625 μg/Plate): 84 Colony/Plate
Colony/Plate S-9 Mixture (−) ([5]; TA100, 625 μg/Plate): 77 Colony/Plate
Colony/Plate S-9 Mixture (+) ([5]; TA100, 1250 μg/Plate): 81 Colony/Plate
Colony/Plate S-9 Mixture (−) ([5]; TA100, 1250 μg/Plate): 84 Colony/Plate
Colony/Plate S-9 Mixture (+) ([5]; TA100, 2500 μg/Plate): 77 Colony/Plate
Colony/Plate S-9 Mixture (−) ([5]; TA100, 2500 μg/Plate): 88 Colony/Plate
Colony/Plate S-9 Mixture (+) ([5]; TA100, 5000 μg/Plate): 78 Colony/Plate
Colony/Plate S-9 Mixture (−) ([5]; TA100, 5000 μg/Plate): 79 Colony/Plate
EC50 [6]: 205 nM
Days for the test (death) Total ([7]; 5 mg/kg): 0/5
Days for the test (death) Total ([7]; 10 mg/kg): 0/5
Days for the test (death) Total ([7]; 25 mg/kg): 0/2
Days for the test (death) 1 ([7]; 50 mg/kg, day 1): 3
Days for the test (death) Total ([7]; 50 mg/kg): 3/3
EC50 [8]: 0.1 nM
EC50 [9]: 0.1 nM
Days for the test (death) Total ([10]; 2 mg/kg): 0/5
Days for the Test (death) 4 ([10]; 5 mg/kg, day 4): 1
Days for the test (death) Total ([10]; 5 mg/kg): 1/5
Days for the test (death) 2 ([10]; 10 mg/kg, day 2): 1
Days for the Test (death) 3 ([10]; 10 mg/kg, day 3): 1
Days for the test (death) Total ([10]; 10 mg/kg): 2/5
EC50 [11]: 0.02 nM
anti-proliferation of B cells [12]: remarkable anti-proliferous effect
EC50 [13]: 0.1 nM
Colony/Plate S-9 Mixture (+) ([14]; TA1537, 317.5 μg/Plate): 11 Colony/Plate
Colony/Plate S-9 Mixture (−) ([14]; TA1537, 317.5 μg/Plate): 8 Colony/Plate
Colony/Plate S-9 Mixture (+) ([14]; TA1537, 625 μg/Plate): 16 Colony/Plate
Colony/Plate S-9 Mixture (−) ([14]; TA1537, 625 μg/Plate): 10 Colony/Plate
Colony/Plate S-9 Mixture (+) ([14]; TA1537, 1250 μg/Plate): 13 Colony/Plate
Colony/Plate S-9 Mixture (−) ([14]; TA1537, 1250 μg/Plate): 16 Colony/Plate
Colony/Plate S-9 Mixture (+) ([14]; TA1537, 2500 μg/Plate): 17 Colony/Plate
Colony/Plate S-9 Mixture (−) ([14]; TA1537, 2500 μg/Plate): 11 Colony/Plate
Colony/Plate S-9 Mixture (+) ([14]; TA1537, 5000 μg/Plate): 14 Colony/Plate
Colony/Plate S-9 Mixture (−) ([14]; TA1537, 5000 μg/Plate): 7 Colony/Plate
